Results taken from article PMC4777217, “Modelling the Tox21 10 K chemical profiles for in vivo toxicity prediction and mechanism characterization” (Nature Communications, 2016).

Key:
ATAD5 = experiment: ATAD5-luc genotoxicity assay (agonist mode); format: cell-based; settings: Homo sapiens, positive control titration on every plate, mean, n=408
Source text: (§1) All cell-based assays were multiplexed with a cell viability assay in the same assay well. Although bla-based assays were multiplexed with a luminescence-based cell viability assay (CellTiter-Glo viability assay, Promega), luc-based assays were multiplexed with a fluorescence-based cell viability assay (Cell Titer-Fluor viability assay, Promega). […] A number of stress response pathway assays, including ATAD5-luc[33], a genotoxicity assay, p53-bla, antioxidant responsive element (ARE-bla)[34] and heat-shock factor response element (HSE-bla) assays, were screened in agonist mode.
(§2) In primary screening, all compounds were tested as three independent runs, with each of the three instances of a compound sample residing in a different location on a different compound plate across replicates. […] Analysis of compound concentration–response data was performed as previously described[5]. […] Compound reproducibility was assessed by calculating the reproducibility of the curve ranks of each compound generated from the triplicate runs[9].

[1] = tested on: heat-shock factor response element; experiment: HSE-bla qHTS assay (agonist mode); format: cell-based, human; settings: positive control titration on every plate, mean, n=408
Source text: as §1, §2

Mitochondria toxicity = settings: read-out: Control AC50, positive control titration on every plate, mean, n=408
[2] = molecular target: T1, peroxisome proliferator-activated receptor gamma (Homo sapiens, UniProt P37231); experiment: PPAR-gamma-bla antagonist mode qHTS assay; format: cell-based; settings: positive control titration on every plate, mean, n=408
T1 sequence (P37231 238-505 limits assumed): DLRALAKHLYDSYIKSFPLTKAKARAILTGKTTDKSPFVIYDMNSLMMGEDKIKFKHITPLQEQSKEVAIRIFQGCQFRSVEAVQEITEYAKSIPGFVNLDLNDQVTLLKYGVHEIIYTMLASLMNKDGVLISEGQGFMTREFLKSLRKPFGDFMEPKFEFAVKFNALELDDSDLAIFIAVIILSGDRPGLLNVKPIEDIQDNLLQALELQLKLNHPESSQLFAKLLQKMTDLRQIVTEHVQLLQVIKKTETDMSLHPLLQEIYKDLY
Source text: (§3) The assays were run in different modes (agonist versus antagonist) and/or formats (full length versus partial receptor) as detailed below, totaling 30 assays. […] All cell-based assays were multiplexed with a cell viability assay in the same assay well. Although bla-based assays were multiplexed with a luminescence-based cell viability assay (CellTiter-Glo viability assay, Promega), luc-based assays were multiplexed with a fluorescence-based cell viability assay (Cell Titer-Fluor viability assay, Promega). […]
(§4) In primary screening, all compounds were tested as three independent runs, with each of the three instances of a compound sample residing in a different location on a different compound plate across replicates. […] Briefly, raw plate reads for each titration point were first normalized relative to the positive control compound (agonist mode: 100%; antagonist mode: 0%) and dimethylsulphoxide (DMSO)-only wells (agonist mode: 0%; antagonist mode: -100%) as follows: % Activity=((Vcompound – VDMSO)/(Vpos – VDMSO)) × 100, where Vcompound denotes the compound well values, Vpos denotes the median value of the positive control wells and VDMSO denotes the median values of the DMSO-only wells, and then corrected by applying an in-house pattern correction algorithm using compound-free control plates (that is,, DMSO-only plates) at the beginning and end of the compound plate stack. […]

[3] = molecular target: T2, peroxisome proliferator-activated receptor delta (Homo sapiens, UniProt Q03181); experiment: PPAR-delta-bla agonist mode qHTS assay; format: cell-based; settings: positive control titration on every plate, mean, n=408
T2 sequence (Q03181 211-441 limits assumed): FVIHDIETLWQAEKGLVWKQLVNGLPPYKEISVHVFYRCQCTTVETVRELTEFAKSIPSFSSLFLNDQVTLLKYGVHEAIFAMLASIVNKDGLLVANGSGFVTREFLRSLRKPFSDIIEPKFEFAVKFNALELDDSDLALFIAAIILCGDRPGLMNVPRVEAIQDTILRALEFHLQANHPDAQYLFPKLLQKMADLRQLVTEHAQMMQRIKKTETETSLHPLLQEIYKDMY
Source text: as §3, §4

[4] = molecular target: T2, peroxisome proliferator-activated receptor delta; experiment: PPAR-delta-bla antagonist mode qHTS assay; format: cell-based; settings: positive control titration on every plate, mean, n=408
Source text: as §3, §4

p53 = experiment: P53-bla qHTS assay (agonist mode); format: cell-based; settings: Homo sapiens, positive control titration on every plate, mean, n=408
Source text: as §3, §4

[5] = molecular target: aryl hydrocarbon receptor (Homo sapiens, UniProt P35869); experiment: AhR-luc qHTS assay; format: cell-based; settings: positive control titration on every plate, mean, n=408
Source text: as §1, §2

DT40 WT cells = experiment: DT40 WT cell viability assay; format: cell-based, chicken; settings: positive control titration on every plate, mean, n=408
DT40 Rev3 cells = experiment: DT40 Rev3 cell viability assay; format: cell-based, chicken; settings: positive control titration on every plate, mean, n=408
DT40 Rad54/Ku70 cells = experiment: DT40 Rad54/Ku70 mutant cell viability assay; format: cell-based, chicken; settings: positive control titration on every plate, mean, n=408
[6] = tested on: antioxidant responsive element; experiment: ARE-bla qHTS assay (agonist mode); format: cell-based; settings: Homo sapiens, positive control titration on every plate, mean, n=408
Source text: as §3, §4

Chain of aryl hydrocarbon receptor (P35869 11-848): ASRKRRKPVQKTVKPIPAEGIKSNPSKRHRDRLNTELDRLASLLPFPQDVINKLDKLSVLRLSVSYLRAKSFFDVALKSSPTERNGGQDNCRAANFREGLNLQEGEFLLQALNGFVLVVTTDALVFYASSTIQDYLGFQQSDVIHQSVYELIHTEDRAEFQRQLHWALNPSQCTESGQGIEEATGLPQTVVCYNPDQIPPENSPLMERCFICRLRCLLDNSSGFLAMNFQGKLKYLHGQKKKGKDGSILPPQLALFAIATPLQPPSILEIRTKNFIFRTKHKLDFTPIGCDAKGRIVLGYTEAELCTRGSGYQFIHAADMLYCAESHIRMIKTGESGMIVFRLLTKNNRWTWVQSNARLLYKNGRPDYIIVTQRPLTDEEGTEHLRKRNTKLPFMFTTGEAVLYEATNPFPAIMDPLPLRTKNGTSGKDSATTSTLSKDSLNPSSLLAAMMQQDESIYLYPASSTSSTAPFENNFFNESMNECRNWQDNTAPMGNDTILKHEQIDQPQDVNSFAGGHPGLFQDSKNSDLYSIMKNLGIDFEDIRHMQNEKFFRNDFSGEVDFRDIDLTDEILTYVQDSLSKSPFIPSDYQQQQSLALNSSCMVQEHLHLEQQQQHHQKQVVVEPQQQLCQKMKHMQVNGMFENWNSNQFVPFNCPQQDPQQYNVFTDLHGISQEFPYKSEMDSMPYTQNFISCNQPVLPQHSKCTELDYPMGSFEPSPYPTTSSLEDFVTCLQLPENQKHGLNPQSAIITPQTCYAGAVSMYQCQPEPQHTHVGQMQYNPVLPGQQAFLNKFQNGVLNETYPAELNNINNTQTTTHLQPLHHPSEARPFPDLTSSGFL

In the case of `O=c1[nH]c(=O)n([C@@H]2O[C@H](CO)[C@@H](O)[C@H]2O)cc1F` [5-Fluorouridine], the AC50 (ATAD5) is reported as 2120 nM.
In the case of `C=CCNC1=C2C[C@@H](C)C[C@H](OC)[C@H](O)[C@@H](C)/C=C(\C)[C@H](OC(N)=O)[C@@H](OC)/C=C\C=C(/C)C(=O)NC(=CC1=O)C2=O` [17-AAG], the AC50 [1] is reported as 45.3 nM.
Work on `N#CC(C#N)=NNc1ccc(OC(F)(F)F)cc1` [FCCP] yielded an AC50 (Mitochondria toxicity) of 96.2 nM.
`O=C(Nc1ccccc1)c1cc([N+](=O)[O-])ccc1Cl` [GW9662] was tested, and the AC50 [2] was 2.47 nM.
`CCCc1c(OCCCOc2ccc(OCC(=O)O)cc2)ccc(C(C)=O)c1O` [L-165,041] showed an AC50 [3] of 36.4 nM.
With `CC(C)c1ccc2c(c1)c(SC(C)(C)C)c(CC(C)(C)C(=O)O)n2Cc1ccc(Cl)cc1` [MK886] the AC50 [4] was 38500 nM.
`CO[C@@]12[C@H](COC(N)=O)C3=C(C(=O)C(C)=C(N)C3=O)N1C[C@@H]1N[C@@H]12` [Mitomycin C] showed an AC50 (p53) of 1530 nM.
Molecule `COc1ccc2[nH]c([S+]([O-])Cc3ncc(C)c(OC)c3C)nc2c1` (stereo not drawn) [Omeprazole] has an AC50 [5] of 49500 nM.
In the case of `CCCCCCCC[N+](CCCCCCCC)(CCCCCCCC)CCCCCCCC` [Tetra-octyl ammonium bromide], the AC50 (DT40 WT cells) is reported as 594 nM, the AC50 (DT40 Rev3 cells) is reported as 440 nM and the AC50 (DT40 Rad54/Ku70 cells) is reported as 416 nM.
For `O=c1cc(-c2ccccc2)oc2ccc3ccccc3c12` [β-Naphthoflavone], the AC50 [6] was 1950 nM.
